Target: T1, Sodium/glucose cotransporter 2 (Homo sapiens, UniProt P31639)
T1 sequence (P31639 whole entry): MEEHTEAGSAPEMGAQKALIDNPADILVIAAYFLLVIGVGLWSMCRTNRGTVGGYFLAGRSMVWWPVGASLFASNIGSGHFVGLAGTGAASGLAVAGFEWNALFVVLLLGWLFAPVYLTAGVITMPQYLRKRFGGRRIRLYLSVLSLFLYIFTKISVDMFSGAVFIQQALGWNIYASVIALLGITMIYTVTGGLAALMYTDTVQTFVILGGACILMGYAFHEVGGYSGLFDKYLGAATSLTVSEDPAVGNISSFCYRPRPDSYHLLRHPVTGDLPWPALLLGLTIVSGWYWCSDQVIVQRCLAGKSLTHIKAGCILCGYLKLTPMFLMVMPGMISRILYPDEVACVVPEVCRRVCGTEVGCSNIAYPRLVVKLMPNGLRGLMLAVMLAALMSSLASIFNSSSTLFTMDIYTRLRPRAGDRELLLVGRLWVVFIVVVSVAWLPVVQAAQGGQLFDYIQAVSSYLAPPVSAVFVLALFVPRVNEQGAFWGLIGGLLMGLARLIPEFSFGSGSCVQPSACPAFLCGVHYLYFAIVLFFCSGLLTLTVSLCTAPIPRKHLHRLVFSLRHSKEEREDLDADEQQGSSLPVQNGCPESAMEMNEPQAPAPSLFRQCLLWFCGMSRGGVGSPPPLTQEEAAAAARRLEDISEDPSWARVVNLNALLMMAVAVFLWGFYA
Experiment: Inhibition of human SGLT2 expressed in CHO cells assessed as reduction of [14C]-labeled AMG after 2 hrs by liquid scintillation counting
Format: cell-based

Row | SMILES | IC50
1 | CCc1ccc(Cc2cc3c(cc2Cl)OCCCOC[C@H]2O[C@@H]3[C@H](O)[C@@H](O)[C@@H]2O)cc1 | 1.59 nM
2 | CCOc1ccc(Cc2cc3c(cc2Cl)OCCCOC[C@H]2O[C@@H]3[C@H](O)[C@@H](O)[C@@H]2O)cc1 | 2.95 nM
3 | CCOc1ccc(Cc2cc3c(cc2Cl)OCCOC[C@H]2O[C@@H]3[C@H](O)[C@@H](O)[C@@H]2O)cc1 | 1.34 nM

System: Rattus norvegicus
Experiment: Antidiabetic activity in Sprague-Dawley rat assessed as induction of urinary glucose excretion per 200 gram of body weight at 1 mg/kg, po
Format: functional, Urine

Row | SMILES | Activity
4 | CCc1ccc(Cc2cc3c(cc2Cl)OCCCCCOC[C@H]2O[C@@H]3[C@H](O)[C@@H](O)[C@@H]2O)cc1 | 116 mg
5 | CCOc1ccc(Cc2cc([C@@H]3O[C@H](CO)[C@@H](O)[C@H](O)[C@H]3O)ccc2Cl)cc1 [DAPAGLIFLOZIN] | 1648 mg
6 | CCOc1ccc(Cc2cc3c(cc2Cl)OCCCCCOC[C@H]2O[C@@H]3[C@H](O)[C@@H](O)[C@@H]2O)cc1 | 226 mg

Source: ChEMBL document CHEMBL1817617, “Novel macrocyclic C-aryl glucoside SGLT2 inhibitors as potential antidiabetic agents” (Bioorg Med Chem, 2011)
